From EPA's ToxValDB 9.5 (doi:10.2903/j.efsa.2006.54) come the findings set out here.

The structures appear in SMILES notation.

Usually NOAEL stands for the highest dose or exposure tested at which no adverse effect was seen.

Data set [1] deals with Aphidius rhopalosiphi. Nature of the data set: LR50; higher = less toxic. The settings on record: not reported; mortality.
For data set [2], the system named is Tagia sp.
In data set [3] the test system is Typhlodromus pyri. To be noted: not reported; reproduction.
Data set [4] deals with Coturnix coturnix.
The test system of data set [5] is Rattus norvegicus.
For data set [6], the system named is Daphnia magna. To be noted: chronic/long-term; duration: 21 days; reproduction.
The subject of data set [7] is Anatidae. To be noted: short-term; oral; feed; mortality.
Data set [8] deals with Apis mellifera. To be noted: acute, mortality.
The subject of data set [9] is Oncorhynchus mykiss.
Data set [10] has as its system Canidae. The settings on record: chronic; duration: 2 years; oral; Dog Other; clinical chemistry.

`CCOP(=O)=O.CCOP(=O)=O.CCOP(=O)=O.[Al+3]` [Fosetyl aluminum] gave an LR50 in data set [1] above 64000 g/ha. Besides, the LC50 in data set [2] (acute, mortality) is above 1000 mg/kg; in data set [7], above 3540 mg/kg-day; in [9] (acute, duration: 96 hours, mortality), above 60 µg/mL. The same molecule gave an NOEC in data set [2] (chronic/long-term, reproduction) of 1670 mg/kg; an NOEC in data set [4] (reproduction developmental) of 216 mg/kg-day; an NOEC (reproductive, oral, feed) of 439 mg/kg-day; an NOEC in [6] of 17 mg/L; an NOEC in data set [9] (chronic/long-term, duration: 28 days, growth) of 100 mg/L. In data set [3], this molecule gave an LEL of 15000 g/ha. The LD50 in data set [4] (acute, oral, mortality) was 5000 mg/kg; the LD50 (acute, mortality) was above 7080 mg/kg; the LD50 in data set [8] (dermal) was above 1000 µg/piece; the LD50 in data set [8] (duration: 48 hours, oral, unspecified) was found to be 462 µg/piece. Moreover, the no-observed-adverse-effect level (NOAEL) in data set [5] (chronic, duration: 2 years, oral, clinical chemistry) was determined as 300 mg/kg-day; in [5] (subchronic, duration: 90 days, histopathology: nonneoplastic), 500 mg/kg-day; in [10], 300 mg/kg-day.
